Inconclusive results and toxic doses are left out.
Tested on: CD2F1 mice, L1210 leukemia ip, survival T/C
Experiment: NCI In Vivo Anticancer Drug Screen. Data for tumor model L1210 Leukemia (intraperitoneal) in CD2F1 (CDF1) mice
Conditions: endpoint: mean survival time, higher = longer survival
Outline: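 Antitumor effect is scored in animals hosting a serially transplanted tumor. Values compare compound-dosed animals against vehicle-only controls as a simple quotient.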

[1] = dose: 100.0 mg/kg/injection, schedule: Q01DX001 (ip), vehicle: saline
[2] = dose: 200.0 mg/kg/injection, schedule: Q01DX001 (ip), vehicle: saline
[3] = dose: 400.0 mg/kg/injection, schedule: Q01DX001 (ip), vehicle: saline

**Q.** `O=S(CCCl)CCCl` was tested. Which T/C (dose: 0.5 mg/kg/injection, schedule: Q01DX009 (ip), vehicle: Klucel (hydroxypropylcellulose) (HPC)) did it give?
**A.** The T/C was 93 % of control.

**Q.** And the T/C (dose: 0.5 mg/kg/injection, schedule: Q04DX003 (ip), vehicle: Klucel (hydroxypropylcellulose) (HPC))?
**A.** The T/C was 98 % of control.

**Q.** What about the T/C (dose: 1.0 mg/kg/injection, schedule: Q01DX009 (ip), vehicle: Klucel (hydroxypropylcellulose) (HPC)) of the same compound?
**A.** The T/C was 101 % of control.

**Q.** And the T/C (dose: 1.0 mg/kg/injection, schedule: Q04DX003 (ip), vehicle: Klucel (hydroxypropylcellulose) (HPC))?
**A.** Its T/C is 100 % of control.

**Q.** What about the T/C (dose: 1.56 mg/kg/injection, schedule: Q01DX009 (ip), vehicle: Klucel (hydroxypropylcellulose) (HPC)) of the same compound?
**A.** The T/C was 109 % of control.

**Q.** And the T/C (dose: 2.0 mg/kg/injection, schedule: Q01DX009 (ip), vehicle: Klucel (hydroxypropylcellulose) (HPC))?
**A.** The T/C was 96 % of control.

**Q.** And the T/C (dose: 2.0 mg/kg/injection, schedule: Q04DX003 (ip), vehicle: Klucel (hydroxypropylcellulose) (HPC))?
**A.** Its T/C is 98 % of control.

**Q.** What about the T/C (dose: 3.12 mg/kg/injection, schedule: Q01DX009 (ip), vehicle: Klucel (hydroxypropylcellulose) (HPC)) of the same compound?
**A.** The T/C was 100 % of control.

**Q.** What about the T/C (dose: 4.0 mg/kg/injection, schedule: Q01DX009 (ip), vehicle: Klucel (hydroxypropylcellulose) (HPC)) of the same compound?
**A.** Its T/C is 106 % of control.

**Q.** What about the T/C (dose: 4.0 mg/kg/injection, schedule: Q04DX003 (ip), vehicle: Klucel (hydroxypropylcellulose) (HPC)) of the same compound?
**A.** The T/C was 102 % of control.

**Q.** And the T/C (dose: 6.25 mg/kg/injection, schedule: Q01DX009 (ip), vehicle: Klucel (hydroxypropylcellulose) (HPC))?
**A.** The T/C was 104 % of control.

**Q.** And the T/C (dose: 8.0 mg/kg/injection, schedule: Q01DX009 (ip), vehicle: Klucel (hydroxypropylcellulose) (HPC))?
**A.** The T/C was 100 % of control.

**Q.** What about the T/C (dose: 8.0 mg/kg/injection, schedule: Q04DX003 (ip), vehicle: Klucel (hydroxypropylcellulose) (HPC)) of the same compound?
**A.** Its T/C is 98 % of control.

**Q.** What about the T/C (dose: 12.5 mg/kg/injection, schedule: Q01DX009 (ip), vehicle: Klucel (hydroxypropylcellulose) (HPC)) of the same compound?
**A.** The T/C was 102 % of control.

**Q.** What about the T/C (dose: 16.0 mg/kg/injection, schedule: Q01DX009 (ip), vehicle: Klucel (hydroxypropylcellulose) (HPC)) of the same compound?
**A.** Its T/C is 100 % of control.

**Q.** What about the T/C (dose: 16.0 mg/kg/injection, schedule: Q04DX003 (ip), vehicle: Klucel (hydroxypropylcellulose) (HPC)) of the same compound?
**A.** The T/C was 100 % of control.

**Q.** And the T/C (dose: 25.0 mg/kg/injection, schedule: Q01DX009 (ip), vehicle: Klucel (hydroxypropylcellulose) (HPC))?
**A.** Its T/C is 103 % of control.

**Q.** What about the T/C (dose: 32.0 mg/kg/injection, schedule: Q04DX003 (ip), vehicle: Klucel (hydroxypropylcellulose) (HPC)) of the same compound?
**A.** The T/C was 106 % of control.

**Q.** For `CN(C)CC(O)c1ccc(O)c(O)c1` (configuration not stated), which T/C (dose: 100.0 mg/kg/injection, schedule: Q04DX003 (ip), vehicle: saline) is on record?
**A.** The T/C was 115 % of control.

**Q.** What about the T/C (dose: 200.0 mg/kg/injection, schedule: Q04DX003 (ip), vehicle: saline) of the same compound?
**A.** Its T/C is 115 % of control.

**Q.** What about the T/C (dose: 400.0 mg/kg/injection, schedule: Q04DX003 (ip), vehicle: saline) of the same compound?
**A.** Its T/C is 103 % of control.

**Q.** With `CCCCCCCC(=O)Nc1cccc(C)c1C` as the compound, how does the T/C (dose: 100.0 mg/kg/injection, schedule: Q01DX009 (ip), vehicle: saline with Tween-80) read?
**A.** Its T/C is 105 % of control.

**Q.** What about the T/C (dose: 200.0 mg/kg/injection, schedule: Q01DX009 (ip), vehicle: saline with Tween-80) of the same compound?
**A.** Its T/C is 89 % of control.

**Q.** What about the T/C (dose: 400.0 mg/kg/injection, schedule: Q01DX009 (ip), vehicle: saline with Tween-80) of the same compound?
**A.** The T/C was 104 % of control.

**Q.** How did the T/C (dose: 100.0 mg/kg/injection, schedule: Q04DX003 (ip), vehicle: saline with Tween-80) turn out when `CCN(CC)Cc1cc(Nc2ncnc3sc(C)c(C)c23)ccc1O` was run?
**A.** Its T/C is 92 % of control.

**Q.** And the T/C (dose: 200.0 mg/kg/injection, schedule: Q04DX003 (ip), vehicle: saline with Tween-80)?
**A.** The T/C was 88 % of control.

**Q.** And the T/C (dose: 400.0 mg/kg/injection, schedule: Q04DX003 (ip), vehicle: saline with Tween-80)?
**A.** The T/C was 91 % of control.

**Q.** For `NCCCNC(=O)OCc1ccccc1`, which T/C [1] is on record?
**A.** Its T/C is 105 % of control.

**Q.** And the T/C [2]?
**A.** The T/C was 102 % of control.

**Q.** And the T/C [3]?
**A.** Its T/C is 102 % of control.

**Q.** With `Cc1nc(N)[nH]c(=O)c1CCCNS(=O)(=O)c1ccc(CN)cc1` as the compound, how does the T/C [1] read?
**A.** Its T/C is 110 % of control.

**Q.** What about the T/C [2] of the same compound?
**A.** The T/C was 101 % of control.

**Q.** What about the T/C [3] of the same compound?
**A.** The T/C was 100 % of control.

**Q.** Which results are given for `CNC(=O)NCC1OC(n2cnc3c(=O)[nH]c(N)nc32)C(O)C1O` (configuration not stated)?
**A.** T/C [1]: 103 % of control; T/C [2]: 97 % of control; T/C [3]: 103 % of control

**Q.** How did the T/C (dose: 75.0 mg/kg/injection, schedule: Q04DX003 (ip), vehicle: saline) turn out when `O=C(Nc1ccc2ccccc2c1)OC1CCS(=O)(=O)C1` (configuration not stated) was run?
**A.** The T/C was 102 % of control.

**Q.** What about the T/C (dose: 150.0 mg/kg/injection, schedule: Q04DX003 (ip), vehicle: saline) of the same compound?
**A.** Its T/C is 102 % of control.

**Q.** What about the T/C (dose: 300.0 mg/kg/injection, schedule: Q04DX003 (ip), vehicle: saline) of the same compound?
**A.** Its T/C is 98 % of control.

**Q.** `COc1cccc2c1C(=O)c1c(O)c3c(c(O)c1C2=O)C[C@H](O)C[C@@H]3OC1CC(N)C(O)C(C)O1` (some centres not stated) was tested. Which T/C (dose: 0.75 mg/kg/injection, schedule: Q01DX009 (ip), vehicle: saline) did it give?
**A.** Its T/C is 107 % of control.

**Q.** And the T/C (dose: 1.5 mg/kg/injection, schedule: Q01DX009 (ip), vehicle: saline)?
**A.** Its T/C is 105 % of control.

**Q.** And the T/C (dose: 3.0 mg/kg/injection, schedule: Q01DX009 (ip), vehicle: saline)?
**A.** Its T/C is 111 % of control.

**Q.** And the T/C (dose: 3.0 mg/kg/injection, schedule: Q01DX009 (ip), vehicle: water)?
**A.** The T/C was 121 % of control.

**Q.** And the T/C (dose: 6.0 mg/kg/injection, schedule: Q01DX009 (ip), vehicle: saline)?
**A.** The T/C was 104 % of control.

**Q.** What about the T/C (dose: 12.0 mg/kg/injection, schedule: Q01DX009 (ip), vehicle: saline) of the same compound?
**A.** The T/C was 115 % of control.

**Q.** What about the T/C (dose: 12.0 mg/kg/injection, schedule: Q01DX009 (ip), vehicle: water) of the same compound?
**A.** Its T/C is 118 % of control.

**Q.** And the T/C (dose: 24.0 mg/kg/injection, schedule: Q01DX009 (ip), vehicle: water)?
**A.** The T/C was 152 % of control.

Source: PubChem BioAssay AID256 (DTP/NCI, 2004)
